What all share (assay type): functional
For one test, the system named is Escherichia coli. Put plainly: Antimicrobial activity against Escherichia coli at 1 ug/ul after 24 hr by agar diffusion method. In general terms: Agar diffusion results depend on both activity and mobility in agar.
In a further test the test system is Bacillus subtilis. Put plainly: Antimicrobial activity against Bacillus subtilis at 1 ug/ul after 24 hr by agar diffusion method.
The test system of the next test is Staphylococcus aureus. The test is described as follows: Antimicrobial activity against Staphylococcus aureus at 1 ug/ul after 24 hr by agar diffusion method.
Another test deals with Klebsiella pneumoniae. The test is described as follows: Antimicrobial activity against Klebsiella pneumoniae at 1 ug/ul after 24 hr by agar diffusion method.
Test [1] can be described thus: Antioxidant activity assessed as DPPH scavenging activity after 20 min by spectrophotometry. On the technique in general: DPPH is a stable violet radical that fades when it is reduced.
For another test, the system named is Pseudomonas aeruginosa. The test is described as follows: Antimicrobial activity against Pseudomonas aeruginosa at 1 ug/ul after 24 hr by agar diffusion method.
Another test has as its system Bacillus cereus. Put plainly: Antimicrobial activity against Bacillus cereus at 1 ug/ul after 24 hr by agar diffusion method.

Consider 21 compounds from ChEMBL document CHEMBL3045363, “Synthesis of 3-methylflavones and their antioxidant and antibacterial activities” (Med Chem Res, 2012).

Values after ≈ are worked out from the molar mass of the structure shown.

Broadly, the IC50 is the midpoint of a concentration-inhibition curve.

Consider `COc1ccc2c(=O)c(C)c(-c3ccccc3)oc2c1`, for which the “growth inhibition (GI)” value is listed as 34% in the test with Escherichia coli; 63% with Bacillus subtilis; 59% in the test with Staphylococcus aureus; 41% in the test with Klebsiella pneumoniae; 51% with Pseudomonas aeruginosa; 50% in the test on Bacillus cereus. Moreover, in test [1], the IC50 stood at 200 µg/mL (≈ 751 µM).
Consider `Cc1ccccc1-c1oc2ccccc2c(=O)c1C`, for which the “growth inhibition (GI)” value with Escherichia coli is listed as 40%; with Bacillus subtilis it was 49%; in the test with Staphylococcus aureus it was 53%; in the test on Klebsiella pneumoniae, 40%; with Pseudomonas aeruginosa, 52%; in the test on Bacillus cereus, 50%. For the same compound, the IC50 in test [1] came to 156.25 µg/mL (≈ 624 µM).
With `Cc1c(-c2ccc(N(C)C)cc2)oc2ccccc2c1=O`, the “growth inhibition (GI)” value in the test with Escherichia coli is given as 51%; with Bacillus subtilis it was 55%; in the test on Staphylococcus aureus, 58%; in the test with Klebsiella pneumoniae it was 50%; with Pseudomonas aeruginosa it was 46%; with Bacillus cereus, 50%. For the same compound, the IC50 in test [1] came to 104.16 µg/mL (≈ 373 µM).
With `Cc1c(-c2ccccc2F)oc2ccccc2c1=O`, the “growth inhibition (GI)” value was 47% with Escherichia coli; 26% in the test with Bacillus subtilis; 55% in the test with Staphylococcus aureus; 52% with Klebsiella pneumoniae; 47% with Pseudomonas aeruginosa; 60% in the test on Bacillus cereus. Moreover, the IC50 in test [1] came out at 208.3 µg/mL (≈ 819 µM).
Turning to `Cc1c(-c2ccc(Br)cc2)oc2ccccc2c1=O`, the “growth inhibition (GI)” value with Escherichia coli is given as 27%; with Bacillus subtilis, 82%; in the test on Staphylococcus aureus, 58%; in the test on Klebsiella pneumoniae it was 72%; in the test with Pseudomonas aeruginosa, 51%; in the test with Bacillus cereus, 62%. Besides, the IC50 in test [1] is 111.11 µg/mL (≈ 353 µM).
On to `Cc1ccc(-c2oc3ccccc3c(=O)c2C)cc1`, for which the “growth inhibition (GI)” value in the test on Escherichia coli was found to be 42%; in the test with Bacillus subtilis, 38%; in the test with Staphylococcus aureus it was 60%; in the test with Klebsiella pneumoniae it was 60%; with Pseudomonas aeruginosa it was 43%; in the test on Bacillus cereus, 62%. Also, the IC50 in test [1] stood at 102.04 µg/mL (≈ 408 µM).
As to `Cc1c(-c2ccccc2)oc2ccccc2c1=O` [3-METHYL-2-PHENYL-4H-CHROMEN-4-ONE], the “growth inhibition (GI)” value is reported as 41% in the test with Escherichia coli; 44% in the test with Bacillus subtilis; 47% in the test on Staphylococcus aureus; 75% in the test on Klebsiella pneumoniae; 48% with Pseudomonas aeruginosa; 80% with Bacillus cereus. Also, the half-inhibitory concentration (IC50) in test [1] was determined as 106.38 µg/mL (≈ 450 µM).
As for `COc1cccc(-c2oc3ccccc3c(=O)c2C)c1`, the “growth inhibition (GI)” value in the test with Escherichia coli is 50%; in the test on Bacillus subtilis it was 74%; in the test on Staphylococcus aureus, 43%; in the test with Klebsiella pneumoniae, 40%; with Pseudomonas aeruginosa, 59%; with Bacillus cereus, 65%. In test [1], the IC50 was determined as 156.25 µg/mL (≈ 587 µM).
For `Cc1c(-c2ccc(O)cc2)oc2ccccc2c1=O`, the “growth inhibition (GI)” value in the test with Escherichia coli came to 47%; in the test with Bacillus subtilis it was 56%; with Staphylococcus aureus, 74%; in the test on Klebsiella pneumoniae it was 80%; with Pseudomonas aeruginosa, 37%; with Bacillus cereus, 81%. In test [1], the IC50 was found to be 104 µg/mL (≈ 412 µM).
Regarding `Cc1cccc(-c2oc3ccccc3c(=O)c2C)c1`, the “growth inhibition (GI)” value is listed as 50% with Escherichia coli; 69% in the test on Bacillus subtilis; 76% with Staphylococcus aureus; 70% in the test with Klebsiella pneumoniae; 56% in the test with Pseudomonas aeruginosa; 80% in the test with Bacillus cereus. Also, the IC50 in test [1] worked out at 250 µg/mL (≈ 999 µM).
For `Cc1c(-c2ccc([N+](=O)[O-])cc2)oc2ccccc2c1=O`, the “growth inhibition (GI)” value in the test on Escherichia coli came out at 31%; in the test with Bacillus subtilis it was 60%; in the test on Staphylococcus aureus it was 77%; in the test with Klebsiella pneumoniae, 85%; in the test with Pseudomonas aeruginosa, 57%; in the test with Bacillus cereus, 89%. Besides, the IC50 in test [1] was determined as 131.57 µg/mL (≈ 468 µM).
Take `Cc1c(-c2ccc(F)cc2)oc2ccccc2c1=O`: the “growth inhibition (GI)” value in the test with Escherichia coli amounted to 31%; with Bacillus subtilis, 81%; with Staphylococcus aureus it was 73%; in the test on Klebsiella pneumoniae, 70%; in the test with Pseudomonas aeruginosa it was 48%; in the test on Bacillus cereus, 75%. Also, the IC50 in test [1] is 113.64 µg/mL (≈ 447 µM).
Regarding `COc1ccc2c(=O)c(C)c(-c3ccc(Cl)cc3)oc2c1`, the “growth inhibition (GI)” value was found to be 28% in the test with Escherichia coli; 46% in the test on Bacillus subtilis; 65% in the test with Staphylococcus aureus; 87% with Klebsiella pneumoniae; 28% in the test with Pseudomonas aeruginosa; 90% with Bacillus cereus. The IC50 in test [1] came out at 80.64 µg/mL (≈ 268 µM).
Consider `Cc1c(-c2ccccc2Br)oc2ccccc2c1=O`, for which the “growth inhibition (GI)” value with Escherichia coli is given as 34%; with Bacillus subtilis, 39%; in the test on Staphylococcus aureus, 81%; in the test with Klebsiella pneumoniae it was 78%; in the test with Pseudomonas aeruginosa, 42%; with Bacillus cereus it was 80%. In test [1], the IC50 is 70.42 µg/mL (≈ 223 µM).
With `COc1ccccc1-c1oc2ccccc2c(=O)c1C`, the “growth inhibition (GI)” value is given as 52% in the test with Escherichia coli; 59% with Bacillus subtilis; 61% in the test on Staphylococcus aureus; 62% in the test on Klebsiella pneumoniae; 45% with Pseudomonas aeruginosa; 51% with Bacillus cereus. The IC50 in test [1] worked out at 142.86 µg/mL (≈ 536 µM).
On to `Cc1c(-c2ccccc2O)oc2ccccc2c1=O`, for which the “growth inhibition (GI)” value in the test with Escherichia coli is on record as 38%; with Bacillus subtilis it was 83%; in the test with Staphylococcus aureus it was 70%; with Klebsiella pneumoniae it was 70%; in the test with Pseudomonas aeruginosa, 43%; in the test on Bacillus cereus it was 50%. Also, the IC50 in test [1] worked out at 79.37 µg/mL (≈ 315 µM).
Turning to `O=C1O[C@H]([C@@H](O)CO)C(O)=C1O` [ASCORBIC ACID], in test [1], the IC50 turned out to be 17.6 µg/mL (≈ 99.9 µM).
For the compound `COc1ccc(-c2oc3ccccc3c(=O)c2C)cc1`, the “growth inhibition (GI)” value in the test on Escherichia coli is recorded as 41%; in the test with Bacillus subtilis, 46%; in the test with Staphylococcus aureus it was 66%; in the test on Klebsiella pneumoniae, 60%; with Pseudomonas aeruginosa it was 46%; with Bacillus cereus, 68%. For the same compound, the IC50 in test [1] was determined as 100 µg/mL (≈ 376 µM).
For `Cc1c(-c2ccccc2Cl)oc2ccccc2c1=O`, the “growth inhibition (GI)” value is 51% with Escherichia coli; 25% in the test on Bacillus subtilis; 57% in the test on Staphylococcus aureus; 59% in the test with Klebsiella pneumoniae; 44% in the test with Pseudomonas aeruginosa; 60% with Bacillus cereus. The IC50 in test [1] was found to be 192.3 µg/mL (≈ 710 µM).
Regarding `Cc1c(-c2ccc(Cl)cc2)oc2ccccc2c1=O`, the “growth inhibition (GI)” value came to 33% in the test with Escherichia coli; 68% with Bacillus subtilis; 74% with Staphylococcus aureus; 81% with Klebsiella pneumoniae; 47% in the test on Pseudomonas aeruginosa; 85% in the test on Bacillus cereus. Moreover, the IC50 in test [1] turned out to be 98.04 µg/mL (≈ 362 µM).
In the case of `Cc1c(-c2ccc(N(C)C)cc2)oc2cc(O)ccc2c1=O`, the “growth inhibition (GI)” value in the test with Escherichia coli came to 29%; in the test on Bacillus subtilis, 50%; with Staphylococcus aureus, 55%; in the test with Klebsiella pneumoniae it was 50%; with Pseudomonas aeruginosa it was 51%; in the test on Bacillus cereus, 57%. In test [1], the IC50 was 58.82 µg/mL (≈ 199 µM).
